# According to patent US20140242093A1, “METHODS AND COMPOSITIONS FOR MODULATING THE INNATE IMMUNE RESPONSE AND/OR MYOGENESIS IN A MAMMALIAN SUBJECT” (FRED HUTCHINSON CANCER RESEARCH CENTER, priority 2011, published 2014):
# System: control human primary myoblasts
# Test: Expression microarray of primary myoblasts transduced with lentivirus carrying DUX4-fl, DUX4-s or GFP
# Description: Primary human myoblasts were collected and cultured as previously described (Snider et al., 2010). Primary myoblasts were maintained at or below 70% confluency for proliferation. For differentiation, cells were allowed to reach 95-100% confluency in growth medium. Once confluency was reached, the cells were changed to differentiation medium (F10 media supplemented with 1% horse serum, 10 μg/mL insulin, and 10 μg/mL transferrin, penicillin/streptomycin) and maintained for 4 days. Human RD cells were grown in DMEM in 10% bovine calf serum (Hyclone) and penicillin/streptomycin. The primary myoblasts were transduced with lentivirus carrying DUX-fl, DUX4- or GFP (MOI=15).
# Expression microarrays were performed on the transduced cells at 24 hours after transduction as follows. […] Samples were analyzed by Illumina Human Whole Genome microarrays. Probe intensities were corrected, normalized, and summarized by the Lumi package of Bioconductor (Du et al., 2008). Differentially expressed genes were identified by the LIMMA package of Bioconductor (Wettenhall and Smyth, 2004). Gene set enrichment analysis (GSEA) was performed using the Bioconductor GOstats package (Falcon and Gentleman, 2007).
substance,measurement,setting,value
"DUX4-fl: full-length DUX4 protein (SEQ ID NO:110), expressed from lentiviral or pCS2 vectors or in vitro translated",MT1A expression fc,cultured human skeletal muscle,−1.526
same,MT2A expression fc,cultured human skeletal muscle,−1.443
same,MUC1 expression fc,cultured human skeletal muscle,−1.74
same,MYBPHL expression fc,cultured human skeletal muscle,−1.492
same,MYF5 expression fc,cultured human skeletal muscle,−1.587
same,MYH13 expression fc,cultured human skeletal muscle,−1.441
same,NACC2 expression fc,cultured human skeletal muscle,−1.787
same,NFIL3 expression fc,cultured human skeletal muscle,−1.823
same,NFKB1 expression fc,cultured human skeletal muscle,−1.512
same,NFKBIZ expression fc,cultured human skeletal muscle,−1.572
same,NINJ1 expression fc,cultured human skeletal muscle,−1.694
same,NPTX2 expression fc,cultured human skeletal muscle,−1.386
same,NRXN2 expression fc,cultured human skeletal muscle,−1.627
same,NT5E expression fc,cultured human skeletal muscle,−1.558
same,OCEL1 expression fc,cultured human skeletal muscle,−1.412
same,P2RX6 expression fc,cultured human skeletal muscle,−1.475
same,PARP3 expression fc,cultured human skeletal muscle,−1.483
same,PCK2 expression fc,cultured human skeletal muscle,−1.776
same,PCTK3 expression fc,cultured human skeletal muscle,−1.641
same,PDK4 expression fc,cultured human skeletal muscle,−1.521
same,PDPN expression fc,cultured human skeletal muscle,−1.623
same,PFKFB4 expression fc,cultured human skeletal muscle,−1.865
same,PHF15 expression fc,cultured human skeletal muscle,−1.415
same,PHLDA3 expression fc,cultured human skeletal muscle,−1.557
same,PLA2G4C expression fc,cultured human skeletal muscle,−1.429
same,PLEKHA4 expression fc,cultured human skeletal muscle,−1.457
same,PLIN2 expression fc,cultured human skeletal muscle,−1.413
same,PLXNB1 expression fc,cultured human skeletal muscle,−1.442
same,PLXNB2 expression fc,cultured human skeletal muscle,−1.649
same,PPAP2B expression fc,cultured human skeletal muscle,−1.742
same,PPP3CC expression fc,cultured human skeletal muscle,−1.457
same,PRDM1 expression fc,cultured human skeletal muscle,−1.573
same,PRKCD expression fc,cultured human skeletal muscle,−1.531
same,PSMB10 expression fc,cultured human skeletal muscle,−1.6
same,PSME2 expression fc,cultured human skeletal muscle,−1.477
same,PTGES expression fc,cultured human skeletal muscle,−1.632
same,PTPRU expression fc,cultured human skeletal muscle,−1.477
same,RALGDS expression fc,cultured human skeletal muscle,−1.475
same,RBCK1 expression fc,cultured human skeletal muscle,−1.636
same,RBM43 expression fc,cultured human skeletal muscle,−1.517
same,RCAN1 expression fc,cultured human skeletal muscle,−1.566
same,RELB expression fc,cultured human skeletal muscle,−1.391
same,RGS20 expression fc,cultured human skeletal muscle,−1.478
same,RHBDF2 expression fc,cultured human skeletal muscle,−1.741
same,RRAS expression fc,cultured human skeletal muscle,−1.405
same,RRBP1 expression fc,cultured human skeletal muscle,−1.483
same,RTKN expression fc,cultured human skeletal muscle,−1.734
same,RTTN expression fc,cultured human skeletal muscle,−1.663
same,RUSC1 expression fc,cultured human skeletal muscle,−1.47
same,SERPING1 expression fc,cultured human skeletal muscle,−1.668
same,SESN1 expression fc,cultured human skeletal muscle,−1.581
same,SHISA5 expression fc,cultured human skeletal muscle,−1.763
same,SIX5 expression fc,cultured human skeletal muscle,−1.673
same,SLC16A3 expression fc,cultured human skeletal muscle,−1.582
same,SLC22A18 expression fc,cultured human skeletal muscle,−1.56
same,SLC25A28 expression fc,cultured human skeletal muscle,−1.534
same,SLC39A14 expression fc,cultured human skeletal muscle,−1.872
same,SPTLC3 expression fc,cultured human skeletal muscle,−1.444
same,SQSTM1 expression fc,cultured human skeletal muscle,−1.695
same,SRGN expression fc,cultured human skeletal muscle,−1.873
same,STC1 expression fc,cultured human skeletal muscle,−1.571
same,STEAP3 expression fc,cultured human skeletal muscle,−1.405
same,SUSD2 expression fc,cultured human skeletal muscle,−1.398
same,TAPBP expression fc,cultured human skeletal muscle,−1.844
same,TCEA3 expression fc,cultured human skeletal muscle,−1.706
same,TCP11L1 expression fc,cultured human skeletal muscle,−1.532
same,TMEM45A expression fc,cultured human skeletal muscle,−1.574
same,TMEM173 expression fc,cultured human skeletal muscle,−1.816
same,TNFAIP2 expression fc,cultured human skeletal muscle,−1.593
same,TNFRSF1A expression fc,cultured human skeletal muscle,−1.672
same,TNFRSF6B expression fc,cultured human skeletal muscle,−1.678
same,TNFSF13B expression fc,cultured human skeletal muscle,−1.763
same,TNS3 expression fc,cultured human skeletal muscle,−1.56
same,TRAF3IP2 expression fc,cultured human skeletal muscle,−1.529
same,TRIP6 expression fc,cultured human skeletal muscle,−1.457
same,TRNP1 expression fc,cultured human skeletal muscle,−1.527
same,TSC22D3 expression fc,cultured human skeletal muscle,−1.729
same,VASN expression fc,cultured human skeletal muscle,−1.76
same,VEZF1 expression fc,cultured human skeletal muscle,−1.528
same,XBP1 expression fc,cultured human skeletal muscle,−1.679
same,ZBTB4 expression fc,cultured human skeletal muscle,−1.417
same,ZC3H12A expression fc,cultured human skeletal muscle,−1.546
same,ZFHX3 expression fc,cultured human skeletal muscle,−1.762
same,ZFP36L2 expression fc,cultured human skeletal muscle,−1.545
same,ZFP90 expression fc,cultured human skeletal muscle,−1.609
same,ZNF337 expression fc,cultured human skeletal muscle,−1.693
same,ZNF395 expression fc,cultured human skeletal muscle,−1.392
same,Full.fc (expression fold change for DUX4-fl targets),gene AVPI1,2
same,Full.fc (expression fold change for DUX4-fl targets),gene BZW2,2.7
same,Full.fc (expression fold change for DUX4-fl targets),gene C1orf63,2.2
same,Full.fc (expression fold change for DUX4-fl targets),gene C6orf191,2.1
same,Full.fc (expression fold change for DUX4-fl targets),gene C14orf102,2.5
same,Full.fc (expression fold change for DUX4-fl targets),gene C14orf138,1.7
same,Full.fc (expression fold change for DUX4-fl targets),gene C21orf91,1.8
same,Full.fc (expression fold change for DUX4-fl targets),gene CBARA1,2.1
same,Full.fc (expression fold change for DUX4-fl targets),gene CCNA1,7.5
same,Full.fc (expression fold change for DUX4-fl targets),gene CCNJ,2.7
same,Full.fc (expression fold change for DUX4-fl targets),gene CLDN14,3.1
same,Full.fc (expression fold change for DUX4-fl targets),gene CLK1,1.8
same,Full.fc (expression fold change for DUX4-fl targets),gene CSE1L,2.9
same,Full.fc (expression fold change for DUX4-fl targets),gene CTNNAL1,1.6
same,Full.fc (expression fold change for DUX4-fl targets),gene CTR9,2.4
same,Full.fc (expression fold change for DUX4-fl targets),gene DBR1,3.4
same,Full.fc (expression fold change for DUX4-fl targets),gene DDX47,1.7
same,Full.fc (expression fold change for DUX4-fl targets),gene DEFB103A,6.4
same,Full.fc (expression fold change for DUX4-fl targets),gene DENND2C,2.6
same,Full.fc (expression fold change for DUX4-fl targets),gene EGLN1,1.6
same,Full.fc (expression fold change for DUX4-fl targets),gene EXOSC10,1.9
same,Full.fc (expression fold change for DUX4-fl targets),gene FAM90A1,3.6
same,Full.fc (expression fold change for DUX4-fl targets),gene FBXO33,3.2
same,Full.fc (expression fold change for DUX4-fl targets),gene FRG2B,2
same,Full.fc (expression fold change for DUX4-fl targets),gene GPBAR1,1.9
same,Full.fc (expression fold change for DUX4-fl targets),gene GTF2F1,3.2
same,Full.fc (expression fold change for DUX4-fl targets),gene HOXB2,2.2
same,Full.fc (expression fold change for DUX4-fl targets),gene JUP,3.2
same,Full.fc (expression fold change for DUX4-fl targets),gene KDM5B,1.8
same,Full.fc (expression fold change for DUX4-fl targets),gene KIF21A,1.8
same,Full.fc (expression fold change for DUX4-fl targets),gene MAPKAP1,1.6
same,Full.fc (expression fold change for DUX4-fl targets),gene MAST4,1.7
same,Full.fc (expression fold change for DUX4-fl targets),gene MED13,1.8
same,Full.fc (expression fold change for DUX4-fl targets),gene NANS,1.9
same,Full.fc (expression fold change for DUX4-fl targets),gene NFYA,2.3
same,Full.fc (expression fold change for DUX4-fl targets),gene PABPN1,2.6
same,Full.fc (expression fold change for DUX4-fl targets),gene PANX2,3.8
same,Full.fc (expression fold change for DUX4-fl targets),gene PELI1,2.9
same,Full.fc (expression fold change for DUX4-fl targets),gene PNP,7
same,Full.fc (expression fold change for DUX4-fl targets),gene PPP2R2B,4.1
same,Full.fc (expression fold change for DUX4-fl targets),gene PRAMEF12,7.8
same,Full.fc (expression fold change for DUX4-fl targets),gene PRPF18,1.7
same,Full.fc (expression fold change for DUX4-fl targets),gene PRR4,3.6
same,Full.fc (expression fold change for DUX4-fl targets),gene PTP4A1,1.7
same,Full.fc (expression fold change for DUX4-fl targets),gene PVRL3,2.2
same,Full.fc (expression fold change for DUX4-fl targets),gene RBBP6,2
same,Full.fc (expression fold change for DUX4-fl targets),gene RFPL1,8.4
same,Full.fc (expression fold change for DUX4-fl targets),gene RFPL2,7.3
same,Full.fc (expression fold change for DUX4-fl targets),gene RFPL4B,8.3
same,Full.fc (expression fold change for DUX4-fl targets),gene RTN4,1.6
same,Full.fc (expression fold change for DUX4-fl targets),gene SAMD8,1.6
same,Full.fc (expression fold change for DUX4-fl targets),gene SEC61A2,1.8
same,Full.fc (expression fold change for DUX4-fl targets),gene SFRS2B,4.2
same,Full.fc (expression fold change for DUX4-fl targets),gene SH3GL2,1.6
same,Full.fc (expression fold change for DUX4-fl targets),gene SIAH1,3.7
same,Full.fc (expression fold change for DUX4-fl targets),gene SNAI1,1.9
same,Full.fc (expression fold change for DUX4-fl targets),gene SON,2.1
same,Full.fc (expression fold change for DUX4-fl targets),gene SPRYD5,1.8
same,Full.fc (expression fold change for DUX4-fl targets),gene SPTY2D1,3.3
same,Full.fc (expression fold change for DUX4-fl targets),gene SRRT,2.6
same,Full.fc (expression fold change for DUX4-fl targets),gene SYNJ1,2.4
same,Full.fc (expression fold change for DUX4-fl targets),gene TAF4B,1.9
same,Full.fc (expression fold change for DUX4-fl targets),gene TFIP11,3.2
same,Full.fc (expression fold change for DUX4-fl targets),gene TRIM43,8.1
same,Full.fc (expression fold change for DUX4-fl targets),gene TRIM48,7.9
same,Full.fc (expression fold change for DUX4-fl targets),gene TRIM49L1,6.9
same,Full.fc (expression fold change for DUX4-fl targets),gene TRIM49L2,6.9
same,Full.fc (expression fold change for DUX4-fl targets),gene USP29,2.6
same,Full.fc (expression fold change for DUX4-fl targets),gene ZNF217,4.1
same,Full.fc (expression fold change for DUX4-fl targets),gene ZNF296,5.5
same,Full.fc (expression fold change for DUX4-fl targets),gene ZNF705A,3.9
same,Full.fc (expression fold change for DUX4-fl targets),gene ZSCAN4,8.3
same,Full.fc (expression fold change for DUX4-fl targets),gene ZSCAN5B,3.8
same,Full.fc (expression fold change for DUX4-fl targets),gene hCG_1651160,8.3
